# Measurements as given in PubChem BioAssay AID1259407 (Chemical Carcinogenesis Research Information System (CCRIS), 2018).
# Activity calls are given as the source filed them. The rule behind the calls is not given here.
# System: CCRIS mutagenicity, Ames/micronucleus/aberration tests
# Test: CCRIS mutagenicity studies
structure (smiles),measurement,setting,value
Nc1ccc2cc3ccccc3cc2c1,mutagenic call,"Test System: AMES SALMONELLA TYPHIMURIUM, Strain/Indicator: NM2000, Metabolic Activation: RAT, LIVER, S-9, AROCLOR 1254, Method: PREINCUBATION",active; positive
same,mutagenic call,"Test System: AMES SALMONELLA TYPHIMURIUM, Strain/Indicator: NM2009, Metabolic Activation: RAT, LIVER, S-9, AROCLOR 1254, Method: PREINCUBATION",active; positive
same,mutagenic call,"Test System: AMES SALMONELLA TYPHIMURIUM, Strain/Indicator: TA97, Metabolic Activation: NONE, Method: STANDARD PLATE",inactive; negative
same,mutagenic call,"Test System: AMES SALMONELLA TYPHIMURIUM, Strain/Indicator: TA97, Metabolic Activation: RAT, LIVER, S-9, AROCLOR 1254, Method: STANDARD PLATE",active; positive
same,mutagenic call,"Test System: AMES SALMONELLA TYPHIMURIUM, Strain/Indicator: TA97A, Metabolic Activation: RAT, LIVER, S-9, AROCLOR 1254, Method: STANDARD PLATE",active; positive
same,mutagenic call,"Test System: AMES SALMONELLA TYPHIMURIUM, Strain/Indicator: TA98 (1,8-DNP6), Metabolic Activation: RAT LIVER, CYTOSOL, AROCLOR 1254, Method: STANDARD PLATE",active; positive
same,mutagenic call,"Test System: AMES SALMONELLA TYPHIMURIUM, Strain/Indicator: TA98 (1,8-DNP6), Metabolic Activation: RAT LIVER, MICROSOMES, AROCLOR 1254, Method: STANDARD PLATE",active; positive
same,mutagenic call,"Test System: AMES SALMONELLA TYPHIMURIUM, Strain/Indicator: TA98, Metabolic Activation: FERRET, LIVER, CYTOSOL, Method: STANDARD PLATE",inactive; negative
same,mutagenic call,"Test System: AMES SALMONELLA TYPHIMURIUM, Strain/Indicator: TA98, Metabolic Activation: FERRET, LIVER, MICROSOMES, Method: STANDARD PLATE",active; positive
same,mutagenic call,"Test System: AMES SALMONELLA TYPHIMURIUM, Strain/Indicator: TA98, Metabolic Activation: HAMSTER, LIVER, CYTOSOL, Method: STANDARD PLATE",inactive; negative
same,mutagenic call,"Test System: AMES SALMONELLA TYPHIMURIUM, Strain/Indicator: TA98, Metabolic Activation: HAMSTER, LIVER, MICROSOMES, Method: STANDARD PLATE",active; positive
same,mutagenic call,"Test System: AMES SALMONELLA TYPHIMURIUM, Strain/Indicator: TA98, Metabolic Activation: HUMAN, LIVER, CYTOSOL, Method: STANDARD PLATE",active; positive
same,mutagenic call,"Test System: AMES SALMONELLA TYPHIMURIUM, Strain/Indicator: TA98, Metabolic Activation: HUMAN, RED BLOOD CELL, CYTOSOL, Method: PREINCUBATION",active; positive
same,mutagenic call,"Test System: AMES SALMONELLA TYPHIMURIUM, Strain/Indicator: TA98, Metabolic Activation: NONE, Method: SPIRAL ASSAY",inactive; negative
same,mutagenic call,"Test System: AMES SALMONELLA TYPHIMURIUM, Strain/Indicator: TA98, Metabolic Activation: PIG, LIVER, CYTOSOL, Method: STANDARD PLATE",inactive; negative
same,mutagenic call,"Test System: AMES SALMONELLA TYPHIMURIUM, Strain/Indicator: TA98, Metabolic Activation: PIG, LIVER, MICROSOMES, Method: STANDARD PLATE",active; positive
same,mutagenic call,"Test System: AMES SALMONELLA TYPHIMURIUM, Strain/Indicator: TA98, Metabolic Activation: RAT LIVER, CYTOSOL, AROCLOR 1254, Method: STANDARD PLATE",active; positive
same,mutagenic call,"Test System: AMES SALMONELLA TYPHIMURIUM, Strain/Indicator: TA98, Metabolic Activation: RAT LIVER, MICROSOMES, AROCLOR 1254, Method: STANDARD PLATE",active; positive
same,mutagenic call,"Test System: AMES SALMONELLA TYPHIMURIUM, Strain/Indicator: TA98, Metabolic Activation: RAT, LIVER, CYTOSOL, Method: STANDARD PLATE",inactive; negative
same,mutagenic call,"Test System: AMES SALMONELLA TYPHIMURIUM, Strain/Indicator: TA98, Metabolic Activation: RAT, LIVER, MICROSOMES, Method: STANDARD PLATE",active; positive
same,mutagenic call,"Test System: AMES SALMONELLA TYPHIMURIUM, Strain/Indicator: TA98, Metabolic Activation: RAT, LIVER, S-9, AROCLOR 1254 (0.5, 1, 2 OR 4%), Method: STANDARD PLATE",active; positive
same,mutagenic call,"Test System: AMES SALMONELLA TYPHIMURIUM, Strain/Indicator: TA98, Metabolic Activation: RAT, LIVER, S-9, AROCLOR 1254, Method: SPIRAL ASSAY",active; positive
same,mutagenic call,"Test System: AMES SALMONELLA TYPHIMURIUM, Strain/Indicator: TA98, Metabolic Activation: RAT, LIVER, S-9, AROCLOR 1254 OR PHENOBARBITOL, Method: STANDARD PLATE",active; positive
same,mutagenic call,"Test System: AMES SALMONELLA TYPHIMURIUM, Strain/Indicator: TA98, Metabolic Activation: RAT, LIVER, S-9, PHENOBARBITAL, Method: STANDARD PLATE",active; positive
same,mutagenic call,"Test System: AMES SALMONELLA TYPHIMURIUM, Strain/Indicator: TA100, Metabolic Activation: MOUSE, LIVER, MICROSOMES, BENZO[E]PYRENE AND TCDD, Method: STANDARD PLATE",active; positive
same,mutagenic call,"Test System: AMES SALMONELLA TYPHIMURIUM, Strain/Indicator: TA100, Metabolic Activation: NONE, Method: SPIRAL ASSAY",inactive; negative
same,mutagenic call,"Test System: AMES SALMONELLA TYPHIMURIUM, Strain/Indicator: TA100, Metabolic Activation: RAT, LIVER, PARENCHYMAL CELLS (FRESHLY ISOLATED OR STORED FOR 1 D OR CRYOPRESERVED), Method: PREINCUBATION",active; positive
same,mutagenic call,"Test System: AMES SALMONELLA TYPHIMURIUM, Strain/Indicator: TA100, Metabolic Activation: RAT, LIVER, S-9, AROCLOR 1254 (2%), Method: STANDARD PLATE",active; positive
same,mutagenic call,"Test System: AMES SALMONELLA TYPHIMURIUM, Strain/Indicator: TA100, Metabolic Activation: RAT, LIVER, S-9, AROCLOR 1254, Method: SPIRAL ASSAY",active; positive
same,mutagenic call,"Test System: AMES SALMONELLA TYPHIMURIUM, Strain/Indicator: TA100, Metabolic Activation: RAT, LIVER, S-9, AROCLOR 1254, Method: STANDARD PLATE",active; positive
same,mutagenic call,"Test System: AMES SALMONELLA TYPHIMURIUM, Strain/Indicator: TA100, Metabolic Activation: RAT, LIVER, S-9, AROCLOR 1254 OR PHENOBARBITOL, Method: STANDARD PLATE",active; positive
same,mutagenic call,"Test System: AMES SALMONELLA TYPHIMURIUM, Strain/Indicator: TA100, Metabolic Activation: RAT, LIVER, S-9, PHENOBARBITAL, Method: STANDARD PLATE",active; positive
same,mutagenic call,"Test System: AMES SALMONELLA TYPHIMURIUM, Strain/Indicator: TA1535 (PSK1002), Metabolic Activation: RAT, LIVER, S-9, AROCLOR 1254, Method: PREINCUBATION",active; positive
same,mutagenic call,"Test System: AMES SALMONELLA TYPHIMURIUM, Strain/Indicator: TA1535, Metabolic Activation: NONE, Method: SPIRAL ASSAY",inactive; negative
same,mutagenic call,"Test System: AMES SALMONELLA TYPHIMURIUM, Strain/Indicator: TA1535, Metabolic Activation: RAT, LIVER, S-9, AROCLOR 1254 (2%), Method: STANDARD PLATE",inactive; negative
same,mutagenic call,"Test System: AMES SALMONELLA TYPHIMURIUM, Strain/Indicator: TA1535, Metabolic Activation: RAT, LIVER, S-9, AROCLOR 1254, Method: SPIRAL ASSAY",active; positive
same,mutagenic call,"Test System: AMES SALMONELLA TYPHIMURIUM, Strain/Indicator: TA1535, Metabolic Activation: RAT, LIVER, S-9, AROCLOR 1254, Method: STANDARD PLATE",active; positive
same,mutagenic call,"Test System: AMES SALMONELLA TYPHIMURIUM, Strain/Indicator: TA1535, Metabolic Activation: RAT, LIVER, S-9, AROCLOR 1254 OR PHENOBARBITOL, Method: STANDARD PLATE",active; positive
same,mutagenic call,"Test System: AMES SALMONELLA TYPHIMURIUM, Strain/Indicator: TA1535, Metabolic Activation: RAT, LIVER, S-9, PHENOBARBITAL, Method: STANDARD PLATE",active; positive
same,mutagenic call,"Test System: AMES SALMONELLA TYPHIMURIUM, Strain/Indicator: TA1537, Metabolic Activation: NONE, Method: SPIRAL ASSAY",inactive; negative
same,mutagenic call,"Test System: AMES SALMONELLA TYPHIMURIUM, Strain/Indicator: TA1537, Metabolic Activation: NONE, Method: STANDARD PLATE",inactive; negative
same,mutagenic call,"Test System: AMES SALMONELLA TYPHIMURIUM, Strain/Indicator: TA1537, Metabolic Activation: RAT, LIVER, S-9, AROCLOR 1254 (2%), Method: STANDARD PLATE",active; positive
same,mutagenic call,"Test System: AMES SALMONELLA TYPHIMURIUM, Strain/Indicator: TA1537, Metabolic Activation: RAT, LIVER, S-9, AROCLOR 1254, Method: SPIRAL ASSAY",active; positive
same,mutagenic call,"Test System: AMES SALMONELLA TYPHIMURIUM, Strain/Indicator: TA1537, Metabolic Activation: RAT, LIVER, S-9, AROCLOR 1254, Method: STANDARD PLATE",active; positive
same,mutagenic call,"Test System: AMES SALMONELLA TYPHIMURIUM, Strain/Indicator: TA1537, Metabolic Activation: RAT, LIVER, S-9, AROCLOR 1254 OR PHENOBARBITOL, Method: STANDARD PLATE",active; positive
same,mutagenic call,"Test System: AMES SALMONELLA TYPHIMURIUM, Strain/Indicator: TA1538, Metabolic Activation: NONE, Method: STANDARD PLATE",inactive; negative
same,mutagenic call,"Test System: AMES SALMONELLA TYPHIMURIUM, Strain/Indicator: TA1538, Metabolic Activation: RAT, LIVER, S-9, AROCLOR 1254, Method: STANDARD PLATE",active; positive
same,mutagenic call,"Test System: AMES SALMONELLA TYPHIMURIUM, Strain/Indicator: TA1538, Metabolic Activation: RAT, LIVER, S-9, AROCLOR 1254 OR PHENOBARBITOL, Method: STANDARD PLATE",active; positive
same,mutagenic call,"Test System: AMES SALMONELLA TYPHIMURIUM, Strain/Indicator: TA1538, Metabolic Activation: RAT, LIVER, S-9, PHENOBARBITAL, Method: STANDARD PLATE",active; positive
same,mutagenic call,"Test System: AMES SALMONELLA TYPHIMURIUM, Strain/Indicator: YG1012, Metabolic Activation: RAT, LIVER, S-9, PHENOBARBITAL AND 5,6-BENZOFLAVONE, Method: PREINCUBATION",active; positive
same,mutagenic call,"Test System: AMES SALMONELLA TYPHIMURIUM, Strain/Indicator: YG1019, Metabolic Activation: RAT, LIVER, S-9, PHENOBARBITAL AND 5,6-BENZOFLAVONE, Method: PREINCUBATION",active; positive
same,mutagenic call,"Test System: AMES SALMONELLA TYPHIMURIUM, Strain/Indicator: YG1020, Metabolic Activation: RAT, LIVER, S-9, PHENOBARBITAL AND 5,6-BENZOFLAVONE, Method: PREINCUBATION",active; positive
same,mutagenic call,"Test System: AMES SALMONELLA TYPHIMURIUM, Strain/Indicator: YG1024, Metabolic Activation: RAT, LIVER, S-9, PHENOBARBITAL AND 5,6-BENZOFLAVONE, Method: PREINCUBATION",active; positive
same,mutagenic call,"Test System: AMES SALMONELLA TYPHIMURIUM, Strain/Indicator: YG1025, Metabolic Activation: RAT, LIVER, S-9, PHENOBARBITAL AND 5,6-BENZOFLAVONE, Method: PREINCUBATION",active; positive
same,mutagenic call,"Test System: AMES SALMONELLA TYPHIMURIUM, Strain/Indicator: YG1029, Metabolic Activation: RAT, LIVER, S-9, PHENOBARBITAL AND 5,6-BENZOFLAVONE, Method: PREINCUBATION",active; positive
same,mutagenic call,"Test System: Ames Salmonella typhimurium, Strain/Indicator: YG7108pin3ERb5, Metabolic Activation: None, Method: Standard plate",active; positive
same,mutagenic call,"Test System: CHINESE HAMSTER OVARY, Strain/Indicator: CHO-K1-BH4 (HGPRT), Metabolic Activation: RAT, LIVER, S-9, AROCLOR, Method: SUSPENSION/PLATE",active; positive
same,mutagenic call,"Test System: E. COLI, Strain/Indicator: WP2 UVRA, Metabolic Activation: NONE, Method: STANDARD PLATE",inactive; negative
same,mutagenic call,"Test System: MOUSE LYMPHOMA, Strain/Indicator: L5178Y (TK+/TK-), Metabolic Activation: NONE, Method: SUSPENSION/PLATE",inactive; negative
same,mutagenic call,"Test System: MOUSE LYMPHOMA, Strain/Indicator: L5178Y (TK+/TK-), Metabolic Activation: RAT, LIVER, S-9, AROCLOR 1254, Method: SUSPENSION/PLATE",active; positive
